{"source": "patent US20190200664A1", "about": "“WATER AND FAT SOLUBLE MICRONUTIENT STABILIZED PARTICLES” (Massachusetts Institute of Technology, priority 2018, published 2019)", "assay": "Iron oxidation (ferrous to ferric) during boiling in water in an open container", "type": "physicochemical", "conditions": "2 hours", "method": "Dry micronutrient-loaded MPs were dispersed in water and then heated at 100° C. for 2 hours before being centrifuged at 4000 rpm for 5 min. Chemically stable MNs in both the supernatant and the MPs were quantified using the methods as described above. The stability percentage equals to the ratio of stable MN after heating as determined by HPLC to the actual loading content of the MN in the MPs. For samples in non-encapsulated form, they were either dissolved in water (water soluble vitamins such as vitamins B9 and B12) or dispersed in water (fat soluble vitamins such as vitamins A and D) before being heated for 2 hrs. Iron-loaded HA-EPO-MPs were dispersed in water and then heated at 100° C. for 2 hours and analyzed for ferrous and ferric content as described above.\nIt was investigated how iron encapsulation in HA-EPO-MPs impacts oxidation during boiling in water in an open container, since both higher temperatures and atmospheric exposure will accelerate iron oxidation. For encapsulated iron, less than 2% oxidizes to ferric iron, and for non-encapsulated iron over 15% is oxidized to ferric iron (FIG. 4D)."}
{"substance": "ferrous sulfate [Non-Encapsulated Fe]", "values": [{"measurement": "iron oxidized to ferric iron", "result": "over 15%"}]}
